Experimental findings from ChEMBL document CHEMBL4229524, “Design, synthesis and preclinical evaluation of 5-methyl-N4-aryl-furo[2,3-d]pyrimidines as single agents with combination chemotherapy potential” (Bioorg Med Chem Lett, 2018) are described below.

The subject of experiment [1] is A-431. Kind of experiment: Cytotoxicity against human A431 cells over-expressing EGFR. In kind it is functional, cell-based.
For experiment [2], the target named is Epidermal growth factor receptor (Homo sapiens, UniProt P00533). In kind it is cell-based.
Epidermal growth factor receptor, sequence (P00533 whole entry): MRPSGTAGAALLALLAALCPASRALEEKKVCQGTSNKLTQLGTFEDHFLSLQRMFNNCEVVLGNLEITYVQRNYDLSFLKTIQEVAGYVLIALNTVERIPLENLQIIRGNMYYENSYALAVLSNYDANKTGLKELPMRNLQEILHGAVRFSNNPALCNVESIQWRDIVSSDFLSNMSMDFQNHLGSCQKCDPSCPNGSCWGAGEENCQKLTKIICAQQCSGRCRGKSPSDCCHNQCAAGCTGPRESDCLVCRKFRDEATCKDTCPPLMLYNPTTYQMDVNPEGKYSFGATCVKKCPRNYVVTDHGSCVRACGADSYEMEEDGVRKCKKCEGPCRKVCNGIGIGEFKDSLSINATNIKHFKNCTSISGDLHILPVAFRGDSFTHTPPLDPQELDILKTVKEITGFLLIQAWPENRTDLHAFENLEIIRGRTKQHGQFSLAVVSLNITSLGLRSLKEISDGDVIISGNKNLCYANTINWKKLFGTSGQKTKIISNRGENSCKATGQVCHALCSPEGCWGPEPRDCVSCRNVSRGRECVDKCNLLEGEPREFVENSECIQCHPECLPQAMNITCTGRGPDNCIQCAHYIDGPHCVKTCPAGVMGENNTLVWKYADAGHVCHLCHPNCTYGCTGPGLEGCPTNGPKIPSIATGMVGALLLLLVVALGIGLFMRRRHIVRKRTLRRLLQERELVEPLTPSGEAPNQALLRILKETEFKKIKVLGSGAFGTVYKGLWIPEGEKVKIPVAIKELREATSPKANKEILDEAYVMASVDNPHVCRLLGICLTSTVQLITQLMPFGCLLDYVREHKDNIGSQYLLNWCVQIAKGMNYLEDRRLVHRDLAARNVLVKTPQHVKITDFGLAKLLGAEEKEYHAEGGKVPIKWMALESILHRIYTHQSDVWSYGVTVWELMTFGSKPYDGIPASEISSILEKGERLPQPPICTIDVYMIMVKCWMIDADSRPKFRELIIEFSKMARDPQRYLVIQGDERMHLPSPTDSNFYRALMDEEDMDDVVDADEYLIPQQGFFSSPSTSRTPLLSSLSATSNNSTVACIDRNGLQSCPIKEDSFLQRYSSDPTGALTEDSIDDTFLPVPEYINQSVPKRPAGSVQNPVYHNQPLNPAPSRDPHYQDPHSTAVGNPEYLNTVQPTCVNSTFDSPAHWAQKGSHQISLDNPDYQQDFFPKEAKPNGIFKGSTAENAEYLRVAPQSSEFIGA
For experiment [3], the system named is Chorioallantoic membrane. The experiment can be described thus: Antiangiogenic activity in Leghorn chicken embryo chorioallantoic membrane after 40 hrs by microscopic analysis. In kind it is functional, tissue-based. As to conditions: Gallus gallus.
For experiment [4], the system named is Chorioallantoic membrane. Kind of experiment: Potency index, ratio of sunitinib IC50 to test compound IC50 for antiangiogenic activity in Leghorn chicken embryo chorioallantoic membrane. It is filed as functional, tissue-based. As to conditions: Gallus gallus.
The target of experiment [5] is Vascular endothelial growth factor receptor 2 (Homo sapiens, UniProt P35968). It is filed as cell-based.
Vascular endothelial growth factor receptor 2, sequence (P35968 whole entry): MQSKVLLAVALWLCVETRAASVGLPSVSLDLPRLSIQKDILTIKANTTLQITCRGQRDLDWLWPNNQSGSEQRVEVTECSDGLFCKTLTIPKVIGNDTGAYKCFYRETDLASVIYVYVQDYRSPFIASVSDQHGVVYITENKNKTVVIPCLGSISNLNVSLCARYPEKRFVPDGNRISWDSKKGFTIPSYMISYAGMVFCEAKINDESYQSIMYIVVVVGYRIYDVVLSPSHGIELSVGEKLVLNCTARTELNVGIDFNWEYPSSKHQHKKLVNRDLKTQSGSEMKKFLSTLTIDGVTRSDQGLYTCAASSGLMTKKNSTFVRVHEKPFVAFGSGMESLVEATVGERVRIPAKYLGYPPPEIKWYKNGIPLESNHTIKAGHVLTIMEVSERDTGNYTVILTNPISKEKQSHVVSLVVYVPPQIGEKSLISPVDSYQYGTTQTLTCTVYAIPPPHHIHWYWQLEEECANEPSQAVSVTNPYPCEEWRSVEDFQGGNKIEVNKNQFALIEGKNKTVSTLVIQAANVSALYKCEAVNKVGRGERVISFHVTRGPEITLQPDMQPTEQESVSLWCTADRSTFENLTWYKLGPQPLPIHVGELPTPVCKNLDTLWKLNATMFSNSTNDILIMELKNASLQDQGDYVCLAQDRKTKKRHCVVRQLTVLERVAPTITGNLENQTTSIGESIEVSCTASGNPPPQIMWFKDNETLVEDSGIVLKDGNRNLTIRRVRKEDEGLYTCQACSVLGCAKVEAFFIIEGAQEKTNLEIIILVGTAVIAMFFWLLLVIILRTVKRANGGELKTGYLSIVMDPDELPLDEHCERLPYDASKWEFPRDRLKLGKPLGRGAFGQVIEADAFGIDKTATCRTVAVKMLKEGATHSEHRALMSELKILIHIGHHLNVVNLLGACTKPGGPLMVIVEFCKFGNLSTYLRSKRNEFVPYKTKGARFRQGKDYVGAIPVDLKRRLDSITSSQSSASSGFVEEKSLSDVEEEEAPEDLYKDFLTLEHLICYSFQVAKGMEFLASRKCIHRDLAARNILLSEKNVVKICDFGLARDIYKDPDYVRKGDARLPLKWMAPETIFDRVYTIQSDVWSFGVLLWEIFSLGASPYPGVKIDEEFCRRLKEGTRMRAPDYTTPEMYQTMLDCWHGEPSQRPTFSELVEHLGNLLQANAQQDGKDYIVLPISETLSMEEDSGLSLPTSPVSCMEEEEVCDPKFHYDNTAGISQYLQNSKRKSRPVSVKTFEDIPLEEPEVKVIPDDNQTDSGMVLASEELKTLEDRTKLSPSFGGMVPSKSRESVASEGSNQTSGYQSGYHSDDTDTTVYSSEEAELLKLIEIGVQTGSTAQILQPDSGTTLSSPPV
Experiment [6] addresses Platelet-derived growth factor receptor beta (Homo sapiens, UniProt P09619). Kind of experiment: Inhibition of PDGF-BB-induced PDGFRbeta activation in human SH-SY5Y cells pretreated for 60 mins followed by PDGF-BB addition and measured after 10 mins by ELISA. It is filed as cell-based.
Experiment [7] deals with A10. Kind of experiment: Induction of microtubule depolymerization in rat A10 cells after 18 hrs by indirect immunofluorescence method. It is filed as functional, cell-based. As to conditions: A10, 18 h.
Experiment [8] in a line: Antiproliferative activity against human SKOV3-MDR1-M6/6 cells after 72 hrs by sulforhodamine B assay. In kind it is functional. As to conditions: SKOV3-MDR1-M6/6, 72 h. (The SRB assay estimates cell density from bound dye.)
Experiment [9] in a line: Antiproliferative activity against human wild-type Hela-beta3 cells after 72 hrs by sulforhodamine B assay. It is filed as functional.
A short description of experiment [10]: Resistance index, ratio of IC50 for human SKOV3-MDR1-M6/6 cells to IC50 for human SKOV3 cells. It is filed as functional.
Experiment [11] in a line: Resistance index, ratio of IC50 for human HeLa cells to IC50 for human wild-type Hela-beta3 cells. In kind it is functional.
The test system of experiment [12] is SK-OV-3. The experiment can be described thus: Antiproliferative activity against human SKOV3 cells after 72 hrs by sulforhodamine B assay. In kind it is functional, cell-based. As to conditions: SK-OV-3, 72 h.
Experiment [13] relates to HeLa. Kind of experiment: Antiproliferative activity against human HeLa cells after 72 hrs by sulforhodamine B assay. In kind it is functional, cell-based.
Experiment [14] deals with MDA-MB-435. The experiment can be described thus: Antiproliferative activity against human MDA-MB-435 cells after 72 hrs by sulforhodamine B assay. As to conditions: MDA-MB-435, 72 h. In kind it is functional, cell-based.

A value given as a limit tells only on which side of the number the result lay.

Platelet-derived growth factor receptor beta, sequence (P09619 whole entry): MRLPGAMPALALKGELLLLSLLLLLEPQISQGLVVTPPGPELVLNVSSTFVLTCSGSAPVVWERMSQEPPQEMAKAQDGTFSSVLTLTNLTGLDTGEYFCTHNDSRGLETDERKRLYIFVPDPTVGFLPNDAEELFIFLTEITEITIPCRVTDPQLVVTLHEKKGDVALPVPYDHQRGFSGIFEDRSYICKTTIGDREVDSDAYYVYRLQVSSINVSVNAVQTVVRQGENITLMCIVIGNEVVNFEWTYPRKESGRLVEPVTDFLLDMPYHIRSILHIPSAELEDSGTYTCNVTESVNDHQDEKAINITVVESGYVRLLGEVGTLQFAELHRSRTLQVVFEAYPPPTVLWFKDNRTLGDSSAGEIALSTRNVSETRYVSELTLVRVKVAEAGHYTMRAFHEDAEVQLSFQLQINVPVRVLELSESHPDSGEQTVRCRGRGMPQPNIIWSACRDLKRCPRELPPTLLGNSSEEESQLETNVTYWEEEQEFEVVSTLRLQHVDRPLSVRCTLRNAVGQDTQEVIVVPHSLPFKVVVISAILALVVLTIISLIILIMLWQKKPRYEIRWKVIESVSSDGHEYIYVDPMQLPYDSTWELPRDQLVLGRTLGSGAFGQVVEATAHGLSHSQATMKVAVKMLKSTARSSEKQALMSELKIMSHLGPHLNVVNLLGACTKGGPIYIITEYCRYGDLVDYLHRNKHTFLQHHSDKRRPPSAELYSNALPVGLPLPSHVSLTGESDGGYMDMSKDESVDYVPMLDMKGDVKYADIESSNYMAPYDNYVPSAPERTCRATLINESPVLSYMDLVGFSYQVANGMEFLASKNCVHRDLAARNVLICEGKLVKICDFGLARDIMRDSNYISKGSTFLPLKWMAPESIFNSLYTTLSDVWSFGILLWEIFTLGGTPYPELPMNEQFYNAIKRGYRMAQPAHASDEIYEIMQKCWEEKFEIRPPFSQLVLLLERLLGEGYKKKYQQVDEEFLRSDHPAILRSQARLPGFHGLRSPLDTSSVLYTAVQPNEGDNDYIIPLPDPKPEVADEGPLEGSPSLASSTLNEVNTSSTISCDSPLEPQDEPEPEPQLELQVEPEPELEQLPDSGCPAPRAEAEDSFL

For orientation: IC50 means the concentration that gives 50% inhibition. Take `CCc1ccc(N(C)c2ncnc3occ(C)c23)cc1`: the concentration for half-maximal inhibition (IC50) in experiment [1] came to 1.4 nM; in experiment [2], 4 nM; in experiment [3] it was 287 nM; in experiment [5], 7.8 nM; in [6] it was 28.9 nM. Besides, the Ratio IC50 in experiment [4] was 4.
What is called EC50 is the concentration that produces a half-maximal response. The low end stands for greater potency, the high end for weaker potency. In experiment [7], `COc1ccc(/C=C\c2cc(OC)c(OC)c(OC)c2)cc1O` [COMBRETASTATIN A4] had an EC50 of 9.8 nM.
On to `Cc1coc2ncnc(Nc3ccc(N(C)C)cc3)c12`, for which the IC50 in [2], in experiment [5] and in experiment [6] was over 200 nM in each case. This compound gave an EC50 in experiment [7] of over 10000 nM.
As for `CNc1ccc(Nc2ncnc3occ(C)c23)cc1`, the IC50 in experiment [2], in [5] and in experiment [6] was over 200 nM in each case. This compound showed an EC50 in experiment [7] of over 10000 nM.
With `CSc1ccc(N(C)c2ncnc3occ(C)c23)cc1`, the IC50 is 2.9 nM in [1]; 7.2 nM in [2]; 520 nM in [3]; 13.6 nM in experiment [5]; 62.2 nM in [6].
As for `COc1ccc(N(c2ncnc3occ(C)c23)C(C)C)cc1`, the IC50 in experiment [1] stood at 4.8 nM; in experiment [2], 10.1 nM; in experiment [3], 480 nM; in experiment [5], 23.4 nM; in experiment [6] it was 42.6 nM.
Take `Cc1coc2ncnc(Nc3ccc([N+](=O)[O-])cc3)c12`: the IC50 in experiment [2], in experiment [5] and in [6] was over 200 nM throughout. The same compound had an EC50 in experiment [7] of over 10000 nM.
Consider `Cc1coc2ncnc(N(C)c3ccc([N+](=O)[O-])cc3)c12`, for which the IC50 is 433 nM in experiment [1]; over 200 nM in experiment [2]; 1060 nM in [3]; over 200 nM in [5]; over 200 nM in [6]. This compound also registered an EC50 in experiment [7] of over 10000 nM.
Consider `CNc1ccc(N(C)c2ncnc3occ(C)c23)cc1`, for which the IC50 worked out at 101 nM in [8]; 86 nM in experiment [9]; 2.9 nM in experiment [1]; 6.4 nM in experiment [2]; 707 nM in experiment [3]; 95 nM in [12]. For the same compound, the IC50 in [13] is 74 nM; in [14], 74 nM; in experiment [5], 12.7 nM; in experiment [6], 57.8 nM. Moreover, the “Ratio IC50” value in experiment [10] was 1.1; in experiment [11], 1.2. In addition, the EC50 in experiment [7] came to 240 nM.
For the compound `COc1ccc(Nc2ncnc3occ(C)c23)cc1`, the 50% inhibitory concentration (IC50) in [1] was 292 nM; in experiment [2] it was 283 nM; in experiment [3], 445 nM; in [5], 38.1 nM; in [6], 57.3 nM.
Regarding `CC(=O)O[C@H]1C(=O)[C@@]2(C)[C@H]([C@H](OC(=O)c3ccccc3)[C@]3(O)C[C@H](OC(=O)[C@H](O)[C@@H](NC(=O)c4ccccc4)c4ccccc4)C(C)=C1C3(C)C)[C@]1(OC(C)=O)CO[C@@H]1C[C@@H]2O` [PACLITAXEL], the IC50 worked out at 24 nM in experiment [9] and 5 nM in experiment [12].
As to `CCN(c1ccc(OC)cc1)c1ncnc2occ(C)c12`, the half-maximal inhibitory concentration (IC50) was 3.4 nM in experiment [1]; 92.5 nM in experiment [2]; 812 nM in experiment [3]; 67.3 nM in experiment [5]; 51.4 nM in [6].
For `CCCN(c1ccc(OC)cc1)c1ncnc2occ(C)c12`, the IC50 in experiment [1] amounted to 2.3 nM; in experiment [2], 7.1 nM; in [3], 301 nM; in experiment [5], 12 nM; in experiment [6], 38.9 nM. In experiment [4], the Ratio IC50 came out at 4.
